Results reported in patent US20260070945A1, “MACROCYCLIC IMMUNOMODULATORS” (Bristol-Myers Squibb Company, priority 2022, published 2026).
Where a SMILES comes first, the peptide text is derived from it. Bridges are numbered along the chain shown (N, C = ends). [ ]: non-standard residue; d: D form. The star is where a group is joined. Phe(3-CF3) = N[C@@H](Cc1cccc(C(F)(F)F)c1)C(=O)O; Phe(4-COOH) = N[C@@H](Cc1ccc(C(=O)O)cc1)C(=O)O; Bip = N[C@@H](Cc1ccc(-c2ccccc2)cc1)C(=O)O; NH(CH2)12COOH = O=C(O)CCCCCCCCCCCCN*; Val(3-OH) = CC(C)(O)[C@H](N)C(=O)O; Cha = N[C@@H](CC1CCCCC1)C(=O)O; Cit = NC(=O)NCCC[C@H](N)C(=O)O; Carboxymethyl = O=C(O)C*; NMeA = CN[C@@H](C)C(=O)O; Dab = NCC[C@H](N)C(=O)O

What follows are compounds tested against T1, PD-1/PD-L1 interaction (PE-labeled human PD-L1-Ig binding to Jurkat cell line over-expressing human PD-1) (Homo sapiens, UniProt Q15116) (assay: Jurkat-PD-1 Cell Binding High-Content Screening Assay (CBA)). Details: Jurkat-hPD-1 cells, PE-labeled PD-L1-Ig 20 nM final; read-out: Jurkat HPD1 PDL1 IC50.
T1 construct: expressed in transfected cells; host or cells: Jurkat
T1 sequence (Q15116 25-288): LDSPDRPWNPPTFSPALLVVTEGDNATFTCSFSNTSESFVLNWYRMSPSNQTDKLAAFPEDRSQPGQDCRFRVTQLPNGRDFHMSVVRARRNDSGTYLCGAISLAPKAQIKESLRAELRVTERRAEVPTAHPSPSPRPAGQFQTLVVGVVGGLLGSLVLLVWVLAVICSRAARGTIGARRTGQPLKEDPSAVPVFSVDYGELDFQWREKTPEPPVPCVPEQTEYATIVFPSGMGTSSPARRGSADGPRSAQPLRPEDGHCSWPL
Summary of the method: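 Jurkat cells overexpressing human PD-1 (8×10^3/well, DMEM + 10% FCS) preincubated with compound 2 h at 37 °C, then PE-labelled human PD-L1-Ig (20 nM final) for 1 h. Cells fixed in paraformaldehyde with Hoechst 33342; bound PD-L1 quantified by high-content imaging.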

SMILES	IC50
COC[C@@H]1NC(=O)CSC[C@@H](C(=O)N[C@@H](CCN)C(=O)NCCCCCCCCCCCCC(=O)O)NC(=O)[C@H](CCC(=O)O)NC(=O)[C@H](C(C)C)NC(=O)[C@H](CC2CCCCC2)NC(=O)[C@H](CCN)NC(=O)[C@@H](CC(C)C)NC(=O)[C@H](C)N(C)C(=O)[C@H](CCC(N)=O)NC(=O)[C@H](Cc2ccc(-c3ccccc3)cc2)NC(=O)[C@H](Cc2ccc(C(=O)O)cc2)NC(=O)[C@H](Cc2cccc(C(F)(F)F)c2)NC(=O)[C@H](CC(=O)O)NC(=O)[C@H](Cc2ccc(OCC(=O)O)cc2)NC1=O [Example 1135] ({CH2CO}-S(Me)Y(Carboxymethyl)D[Phe(3-CF3)][Phe(4-COOH)][Bip]Q[NMeA][dL][Dab][Cha]VEC[Dab]-{NH(CH2)12COOH}; thioether N-14)	12.5 nM
COC[C@@H]1NC(=O)CSC[C@@H](C(=O)N[C@@H](CCN)C(=O)NCCCCCCCCCCCCC(=O)O)NC(=O)[C@H](CC(=O)O)NC(=O)[C@H](C(C)(C)O)NC(=O)[C@H](CC2CCCCC2)NC(=O)[C@H](CCN)NC(=O)[C@@H](CC(C)C)NC(=O)[C@H](C)N(C)C(=O)[C@H](CCCNC(N)=O)NC(=O)[C@H](Cc2ccc(-c3ccccc3)cc2)NC(=O)[C@H](Cc2ccc(C(=O)O)cc2)NC(=O)[C@H](Cc2cccc(C(F)(F)F)c2)NC(=O)[C@H](CC(=O)O)NC(=O)[C@H](Cc2ccc(OCC(=O)O)cc2)NC1=O [Example 1138] ({CH2CO}-S(Me)Y(Carboxymethyl)D[Phe(3-CF3)][Phe(4-COOH)][Bip][Cit][NMeA][dL][Dab][Cha][Val(3-OH)]DC[Dab]-{NH(CH2)12COOH}; thioether N-14)	11.2 nM
COC[C@@H]1NC(=O)CSC[C@@H](C(=O)N[C@@H](CCN)C(=O)NCCCCCCCCCCCCC(=O)O)NC(=O)[C@H](CCC(=O)O)NC(=O)[C@H](C(C)C)NC(=O)[C@H](CC2CCCCC2)NC(=O)[C@H](CCN)NC(=O)[C@@H](CC(C)C)NC(=O)[C@H](C)N(C)C(=O)[C@H](CCCNC(N)=O)NC(=O)[C@H](Cc2ccc(-c3ccccc3)cc2)NC(=O)[C@H](Cc2ccc(C(=O)O)cc2)NC(=O)[C@H](Cc2cccc(C(F)(F)F)c2)NC(=O)[C@H](CC(=O)O)NC(=O)[C@H](Cc2ccc(OCC(=O)O)cc2)NC1=O [Example 1139] ({CH2CO}-S(Me)Y(Carboxymethyl)D[Phe(3-CF3)][Phe(4-COOH)][Bip][Cit][NMeA][dL][Dab][Cha]VEC[Dab]-{NH(CH2)12COOH}; thioether N-14)	12.7 nM
CC(C)C[C@H]1NC(=O)[C@H](C)N(C)C(=O)[C@H](CCC(N)=O)NC(=O)[C@H](Cc2ccc(-c3ccccc3)cc2)NC(=O)[C@H](Cc2ccc(C(=O)O)cc2)NC(=O)[C@H](Cc2cccc(C(F)(F)F)c2)NC(=O)[C@H](CC(=O)O)NC(=O)[C@H](Cc2ccc(OCC(=O)O)cc2)NC(=O)[C@H](Cc2ccc(C(=O)O)cc2)NC(=O)CSC[C@@H](C(=O)N[C@@H](CCN)C(=O)NCCCCCCCCCCCCC(=O)O)NC(=O)[C@H](CCC(=O)O)NC(=O)[C@H](C(C)C)NC(=O)[C@H](CC2CCCCC2)NC(=O)[C@H](CCN)NC1=O [Example 1143] ({CH2CO}-[Phe(4-COOH)]Y(Carboxymethyl)D[Phe(3-CF3)][Phe(4-COOH)][Bip]Q[NMeA][dL][Dab][Cha]VEC[Dab]-{NH(CH2)12COOH}; thioether N-14)	21.4 nM

The remaining lines, values ahead:

IC50	SMILES
18.1 nM	COC[C@@H]1NC(=O)CSC[C@@H](C(=O)N[C@@H](CCN)C(=O)NCCCCCCCCCCCCC(=O)O)NC(=O)[C@H](CO)NC(=O)[C@H](C(C)(C)O)NC(=O)[C@H](CC2CCCCC2)NC(=O)[C@H](CCN)NC(=O)[C@@H](CC(C)C)NC(=O)[C@H](C)N(C)C(=O)[C@H](CCC(N)=O)NC(=O)[C@H](Cc2ccc(-c3ccccc3)cc2)NC(=O)[C@H](Cc2ccc(C(=O)O)cc2)NC(=O)[C@H](Cc2cccc(C(F)(F)F)c2)NC(=O)[C@H](CC(=O)O)NC(=O)[C@H](Cc2ccc(OCC(=O)O)cc2)NC1=O [Example 1136] ({CH2CO}-S(Me)Y(Carboxymethyl)D[Phe(3-CF3)][Phe(4-COOH)][Bip]Q[NMeA][dL][Dab][Cha][Val(3-OH)]SC[Dab]-{NH(CH2)12COOH}; thioether N-14)
13.5 nM	COC[C@@H]1NC(=O)CSC[C@@H](C(=O)N[C@@H](CCN)C(=O)NCCCCCCCCCCCCC(=O)O)NC(=O)[C@H](Cc2c[nH]cn2)NC(=O)[C@H](C(C)(C)O)NC(=O)[C@H](CC2CCCCC2)NC(=O)[C@H](CCN)NC(=O)[C@@H](CC(C)C)NC(=O)[C@H](C)N(C)C(=O)[C@H](CCC(N)=O)NC(=O)[C@H](Cc2ccc(-c3ccccc3)cc2)NC(=O)[C@H](Cc2ccc(C(=O)O)cc2)NC(=O)[C@H](Cc2cccc(C(F)(F)F)c2)NC(=O)[C@H](CC(=O)O)NC(=O)[C@H](Cc2ccc(OCC(=O)O)cc2)NC1=O [Example 1137] ({CH2CO}-S(Me)Y(Carboxymethyl)D[Phe(3-CF3)][Phe(4-COOH)][Bip]Q[NMeA][dL][Dab][Cha][Val(3-OH)]HC[Dab]-{NH(CH2)12COOH}; thioether N-14)
25.4 nM	COC[C@@H]1NC(=O)CSC[C@@H](C(=O)N[C@@H](CCN)C(=O)NCCCCCCCCCCCCC(=O)O)NC(=O)[C@H](CO)NC(=O)[C@H](C(C)(C)O)NC(=O)[C@H](CC2CCCCC2)NC(=O)[C@H](CCN)NC(=O)[C@@H](CC(C)C)NC(=O)[C@H](C)N(C)C(=O)[C@H](CCCNC(N)=O)NC(=O)[C@H](Cc2ccc(-c3ccccc3)cc2)NC(=O)[C@H](Cc2ccc(C(=O)O)cc2)NC(=O)[C@H](Cc2cccc(C(F)(F)F)c2)NC(=O)[C@H](CC(=O)O)NC(=O)[C@H](Cc2ccc(OCC(=O)O)cc2)NC1=O [Example 1140] ({CH2CO}-S(Me)Y(Carboxymethyl)D[Phe(3-CF3)][Phe(4-COOH)][Bip][Cit][NMeA][dL][Dab][Cha][Val(3-OH)]SC[Dab]-{NH(CH2)12COOH}; thioether N-14)
18.2 nM	COC[C@@H]1NC(=O)CSC[C@@H](C(=O)N[C@@H](CCN)C(=O)NCCCCCCCCCCCCC(=O)O)NC(=O)[C@H](Cc2c[nH]cn2)NC(=O)[C@H](C(C)(C)O)NC(=O)[C@H](CC2CCCCC2)NC(=O)[C@H](CCN)NC(=O)[C@@H](CC(C)C)NC(=O)[C@H](C)N(C)C(=O)[C@H](CCCNC(N)=O)NC(=O)[C@H](Cc2ccc(-c3ccccc3)cc2)NC(=O)[C@H](Cc2ccc(C(=O)O)cc2)NC(=O)[C@H](Cc2cccc(C(F)(F)F)c2)NC(=O)[C@H](CC(=O)O)NC(=O)[C@H](Cc2ccc(OCC(=O)O)cc2)NC1=O [Example 1141] ({CH2CO}-S(Me)Y(Carboxymethyl)D[Phe(3-CF3)][Phe(4-COOH)][Bip][Cit][NMeA][dL][Dab][Cha][Val(3-OH)]HC[Dab]-{NH(CH2)12COOH}; thioether N-14)
24.8 nM	CC(C)C[C@H]1NC(=O)[C@H](C)N(C)C(=O)[C@H](CCC(N)=O)NC(=O)[C@H](Cc2ccc(-c3ccccc3)cc2)NC(=O)[C@H](Cc2ccc(C(=O)O)cc2)NC(=O)[C@H](Cc2cccc(C(F)(F)F)c2)NC(=O)[C@H](CC(=O)O)NC(=O)[C@H](Cc2ccc(OCC(=O)O)cc2)NC(=O)[C@H](Cc2ccc(C(=O)O)cc2)NC(=O)CSC[C@@H](C(=O)N[C@@H](CCN)C(=O)NCCCCCCCCCCCCC(=O)O)NC(=O)[C@H](CC(=O)O)NC(=O)[C@H](C(C)(C)O)NC(=O)[C@H](CC2CCCCC2)NC(=O)[C@H](CCN)NC1=O [Example 1142] ({CH2CO}-[Phe(4-COOH)]Y(Carboxymethyl)D[Phe(3-CF3)][Phe(4-COOH)][Bip]Q[NMeA][dL][Dab][Cha][Val(3-OH)]DC[Dab]-{NH(CH2)12COOH}; thioether N-14)
